# Structures can show the parent of a compound that is named as a salt. Active and inactive are the calls of the source. No cut-off for these calls is given here.
# Columns and labels:
# Microbotryum violaceum [1] = test: Antifungal activity against Ustilago violacea at 135 ug by agar diffusion assay; assay type: functional; details: read-out: IZ
# Mycotypha microspora [2] = test: Antifungal activity against Mycotypha microspora at 135 ug by agar diffusion assay; assay type: functional; details: read-out: IZ
# [3] = test system: Aspergillus pseudoglaucus; test: Antifungal activity Eurotium repens at 135 ug by agar diffusion assay; assay type: functional; details: read-out: IZ
# Fusarium oxysporum [4] = test: Antifungal activity against Fusarium oxysporum at 135 ug by agar diffusion assay; assay type: functional; details: read-out: IZ
# Priestia megaterium [5] = test: Antibacterial activity against Bacillus megaterium at 135 ug by agar diffusion assay; assay type: functional; details: read-out: IZ
# Escherichia coli [6] = test: Antibacterial activity against Escherichia coli at 135 ug by agar diffusion assay; assay type: functional; details: read-out: IZ
# Amphibalanus amphitrite = test: Toxicity in Balanus amphitrite nauplii larvae assessed as survival rate; assay type: organism-based; details: in vivo
# [Chlorella] fusca [7] = Antialgal activity against Chlorella fusca at 135 ug by agar diffusion assay; assay type: functional; details: Scenedesmus fuscus; read-out: IZ
# Priestia megaterium [8] = test: Antibacterial activity against Bacillus megaterium at 50 ug by agar diffusion assay; assay type: functional, organism-based
# Escherichia coli [9] = test: Antibacterial activity against Escherichia coli at 50 ug by agar diffusion assay; assay type: functional, organism-based
# [Chlorella] fusca [10] = Antialgal activity against Chlorella fusca at 50 ug by agar diffusion assay; assay type: functional, organism-based; details: Scenedesmus fuscus
# Microbotryum violaceum [11] = test: Antifungal activity against Ustilago violacea at 45 ug by agar diffusion assay; assay type: functional; details: read-out: IZ
# Mycotypha microspora [12] = test: Antifungal activity against Mycotypha microspora at 45 ug by agar diffusion assay; assay type: functional; details: read-out: IZ
# [13] = test system: Aspergillus pseudoglaucus; test: Antifungal activity Eurotium repens at 45 ug by agar diffusion assay; assay type: functional; details: read-out: IZ
# Fusarium oxysporum [14] = test: Antifungal activity against Fusarium oxysporum at 45 ug by agar diffusion assay; assay type: functional; details: read-out: IZ
# Priestia megaterium [15] = test: Antibacterial activity against Bacillus megaterium at 45 ug by agar diffusion assay; assay type: functional; details: read-out: IZ
# Escherichia coli [16] = test: Antibacterial activity against Escherichia coli at 45 ug by agar diffusion assay; assay type: functional; details: read-out: IZ
# [Chlorella] fusca [17] = Antialgal activity against Chlorella fusca at 45 ug by agar diffusion assay; assay type: functional; details: Scenedesmus fuscus; read-out: IZ
# Microbotryum violaceum [18] = test: Antifungal activity against Ustilago violacea at 40 ug by agar diffusion assay; assay type: functional; details: read-out: IZ
# Mycotypha microspora [19] = test: Antifungal activity against Mycotypha microspora at 40 ug by agar diffusion assay; assay type: functional; details: read-out: IZ
# [20] = test system: Aspergillus pseudoglaucus; test: Antifungal activity Eurotium repens at 40 ug by agar diffusion assay; assay type: functional; details: read-out: IZ
# Fusarium oxysporum [21] = test: Antifungal activity against Fusarium oxysporum at 40 ug by agar diffusion assay; assay type: functional; details: read-out: IZ
# Priestia megaterium [22] = test: Antibacterial activity against Bacillus megaterium at 40 ug by agar diffusion assay; assay type: functional; details: read-out: IZ
# Escherichia coli [23] = test: Antibacterial activity against Escherichia coli at 40 ug by agar diffusion assay; assay type: functional; details: read-out: IZ
# [Chlorella] fusca [24] = Antialgal activity against Chlorella fusca at 40 ug by agar diffusion assay; assay type: functional; details: Scenedesmus fuscus; read-out: IZ
# Priestia megaterium [25] = test: Antibacterial activity against Bacillus megaterium at 85 ug by agar diffusion assay; assay type: functional; details: read-out: IZ
# Escherichia coli [26] = test: Antibacterial activity against Escherichia coli at 85 ug by agar diffusion assay; assay type: functional; details: read-out: IZ
# Mycotypha microspora [27] = test: Antifungal activity against Mycotypha microspora at 50 ug by agar diffusion assay; details: read-out: IZ
# [28] = test system: Aspergillus pseudoglaucus; test: Antifungal activity Eurotium repens at 50 ug by agar diffusion assay; details: read-out: IZ
# Fusarium oxysporum [29] = test: Antifungal activity against Fusarium oxysporum at 50 ug by agar diffusion assay; details: read-out: IZ
# Microbotryum violaceum [30] = test: Antifungal activity against Ustilago violacea at 33 ug by agar diffusion assay; assay type: functional; details: read-out: IZ
# Mycotypha microspora [31] = test: Antifungal activity against Mycotypha microspora at 33 ug by agar diffusion assay; assay type: functional; details: read-out: IZ
# [32] = test system: Aspergillus pseudoglaucus; test: Antifungal activity Eurotium repens at 33 ug by agar diffusion assay; assay type: functional; details: read-out: IZ
# Fusarium oxysporum [33] = test: Antifungal activity against Fusarium oxysporum at 33 ug by agar diffusion assay; assay type: functional; details: read-out: IZ
# Priestia megaterium [34] = test: Antibacterial activity against Bacillus megaterium at 33 ug by agar diffusion assay; assay type: functional; details: read-out: IZ
# Escherichia coli [35] = test: Antibacterial activity against Escherichia coli at 33 ug by agar diffusion assay; assay type: functional; details: read-out: IZ
# [Chlorella] fusca [36] = Antialgal activity against Chlorella fusca at 33 ug by agar diffusion assay; assay type: functional; details: Scenedesmus fuscus; read-out: IZ
# Priestia megaterium [37] = test: Antibacterial activity against Bacillus megaterium at 65 ug by agar diffusion assay; assay type: functional; details: read-out: IZ
# Escherichia coli [38] = test: Antibacterial activity against Escherichia coli at 65 ug by agar diffusion assay; assay type: functional; details: read-out: IZ
# Microbotryum violaceum [39] = test: Antifungal activity against Ustilago violacea at 60 ug by agar diffusion assay; assay type: functional, organism-based
# Mycotypha microspora [40] = test: Antifungal activity against Mycotypha microspora at 60 ug by agar diffusion assay; assay type: functional; details: read-out: IZ
# [41] = test system: Aspergillus pseudoglaucus; test: Antifungal activity Eurotium repens at 60 ug by agar diffusion assay; assay type: functional; details: read-out: IZ
# Fusarium oxysporum [42] = test: Antifungal activity against Fusarium oxysporum at 60 ug by agar diffusion assay; assay type: functional; details: read-out: IZ
# Microbotryum violaceum [43] = test: Antifungal activity against Ustilago violacea at 25 ug by agar diffusion assay; assay type: functional; details: read-out: IZ
# Mycotypha microspora [44] = test: Antifungal activity against Mycotypha microspora at 25 ug by agar diffusion assay; assay type: functional; details: read-out: IZ
# [45] = test system: Aspergillus pseudoglaucus; test: Antifungal activity Eurotium repens at 25 ug by agar diffusion assay; assay type: functional; details: read-out: IZ
# Fusarium oxysporum [46] = test: Antifungal activity against Fusarium oxysporum at 25 ug by agar diffusion assay; assay type: functional; details: read-out: IZ
# Priestia megaterium [47] = test: Antibacterial activity against Bacillus megaterium at 25 ug by agar diffusion assay; assay type: functional; details: read-out: IZ
# Escherichia coli [48] = test: Antibacterial activity against Escherichia coli at 25 ug by agar diffusion assay; assay type: functional; details: read-out: IZ
# [Chlorella] fusca [49] = Antialgal activity against Chlorella fusca at 25 ug by agar diffusion assay; assay type: functional; details: Scenedesmus fuscus; read-out: IZ
# Microbotryum violaceum [50] = test: Antifungal activity against Ustilago violacea at 34 ug by agar diffusion assay; assay type: functional; details: read-out: IZ
# Mycotypha microspora [51] = test: Antifungal activity against Mycotypha microspora at 34 ug by agar diffusion assay; assay type: functional; details: read-out: IZ
# [52] = test system: Aspergillus pseudoglaucus; test: Antifungal activity Eurotium repens at 34 ug by agar diffusion assay; assay type: functional; details: read-out: IZ
# Fusarium oxysporum [53] = test: Antifungal activity against Fusarium oxysporum at 34 ug by agar diffusion assay; assay type: functional; details: read-out: IZ
# Priestia megaterium [54] = test: Antibacterial activity against Bacillus megaterium at 34 ug by agar diffusion assay; assay type: functional; details: read-out: IZ
# Escherichia coli [55] = test: Antibacterial activity against Escherichia coli at 34 ug by agar diffusion assay; assay type: functional; details: read-out: IZ
# [Chlorella] fusca [56] = Antialgal activity against Chlorella fusca at 34 ug by agar diffusion assay; assay type: functional; details: Scenedesmus fuscus; read-out: IZ
compound,measurement,setting,value
C=C1C[C@H](O)[C@H](Br)C(C)(C)[C@@]12CCC(C)=C(Cl)C2 [ELATOL],zone of inhibition at 135 µg/disc,Microbotryum violaceum [1],3 mm
same,zone of inhibition at 135 µg/disc,Mycotypha microspora [2],25 mm
same,zone of inhibition at 135 µg/disc,[3],25 mm
same,zone of inhibition at 135 µg/disc,Fusarium oxysporum [4],7 mm
same,zone of inhibition at 135 µg/disc,Priestia megaterium [5],2 mm
same,zone of inhibition at 135 µg/disc,Escherichia coli [6],0 mm
same,Activity,Amphibalanus amphitrite,Toxic
same,zone of inhibition at 135 µg/disc,[Chlorella] fusca [7],0 mm
C=C1CC[C@H](Br)C(C)(C)[C@]12CC=C(C)CC2,Activity,Priestia megaterium [8],inactive
same,Activity,Escherichia coli [9],inactive
same,Activity,[Chlorella] fusca [10],inactive
C=C1C[C@H](O)[C@H](Br)C(C)(C)[C@]12C=C[C@@](C)(O)CC2 [RIGIDOL],zone of inhibition at 45 µg/disc,Microbotryum violaceum [11],5 mm
same,zone of inhibition at 45 µg/disc,Mycotypha microspora [12],4 mm
same,zone of inhibition at 45 µg/disc,[13],0 mm
same,zone of inhibition at 45 µg/disc,Fusarium oxysporum [14],0 mm
same,zone of inhibition at 45 µg/disc,Priestia megaterium [15],0 mm
same,zone of inhibition at 45 µg/disc,Escherichia coli [16],0 mm
same,zone of inhibition at 45 µg/disc,[Chlorella] fusca [17],0 mm
C[C@@H]1CCC23[C@H]1CC[C@@]2(C)C[C@H](C)[C@]3(C)O (stereo partly specified),zone of inhibition at 40 µg/disc,Microbotryum violaceum [18],0 mm
same,zone of inhibition at 40 µg/disc,Mycotypha microspora [19],0 mm
same,zone of inhibition at 40 µg/disc,[20],0 mm
same,zone of inhibition at 40 µg/disc,Fusarium oxysporum [21],0 mm
same,zone of inhibition at 40 µg/disc,Priestia megaterium [22],0 mm
same,zone of inhibition at 40 µg/disc,Escherichia coli [23],0 mm
same,zone of inhibition at 40 µg/disc,[Chlorella] fusca [24],2 mm
CC1(C)S[C@@H]2[C@H](NC(=O)Cc3ccccc3)C(=O)N2[C@H]1C(=O)O [PENICILLIN G POTASSIUM],zone of inhibition at 85 µg/disc,Priestia megaterium [25],20 mm
same,zone of inhibition at 85 µg/disc,Escherichia coli [26],0 mm
Clc1ccc(COC(Cn2ccnc2)c2ccc(Cl)cc2Cl)c(Cl)c1 (stereo unspecified) [MICONAZOLE NITRATE],zone of inhibition at 50 µg/disc,Mycotypha microspora [27],7 mm
same,zone of inhibition at 50 µg/disc,[28],18 mm
same,zone of inhibition at 50 µg/disc,Fusarium oxysporum [29],1 mm
CC1=CC[C@]2(CC1)C(C)=C[C@@H](O)[C@H](Br)C2(C)C,zone of inhibition at 33 µg/disc,Microbotryum violaceum [30],0 mm
same,zone of inhibition at 33 µg/disc,Mycotypha microspora [31],3 mm
same,zone of inhibition at 33 µg/disc,[32],0 mm
same,zone of inhibition at 33 µg/disc,Fusarium oxysporum [33],0 mm
same,zone of inhibition at 33 µg/disc,Priestia megaterium [34],0 mm
same,zone of inhibition at 33 µg/disc,Escherichia coli [35],0 mm
same,zone of inhibition at 33 µg/disc,[Chlorella] fusca [36],3 mm
CN[C@@H]1[C@H](O[C@H]2[C@H](O[C@H]3[C@H](O)[C@@H](O)[C@H](N=C(N)N)[C@@H](O)[C@@H]3N=C(N)N)O[C@@H](C)[C@]2(O)C=O)O[C@@H](CO)[C@H](O)[C@H]1O [STREPTOMYCIN SULFATE],zone of inhibition at 65 µg/disc,Priestia megaterium [37],5 mm
same,zone of inhibition at 65 µg/disc,Escherichia coli [38],3 mm
C[C@@H]1C[C@@H]([C@H](O)CC2CC(=O)NC(=O)C2)C(=O)[C@@H](C)C1 [CYCLOHEXIMIDE],Activity,Microbotryum violaceum [39],Active
same,zone of inhibition at 60 µg/disc,Mycotypha microspora [40],4 mm
same,zone of inhibition at 60 µg/disc,[41],5 mm
same,zone of inhibition at 60 µg/disc,Fusarium oxysporum [42],3 mm
CC1=CC[C@@]2(CC1)C(C)=CC[C@@H](Br)C2(C)C,Activity,Priestia megaterium [8],inactive
same,Activity,Escherichia coli [9],inactive
same,Activity,[Chlorella] fusca [10],inactive
C=C1C[C@H](O)[C@H](Br)C(C)(C)[C@]12CC=C(C)CC2 [DESCHLOROELATOL],zone of inhibition at 25 µg/disc,Microbotryum violaceum [43],0 mm
same,zone of inhibition at 25 µg/disc,Mycotypha microspora [44],20 mm
same,zone of inhibition at 25 µg/disc,[45],18 mm
same,zone of inhibition at 25 µg/disc,Fusarium oxysporum [46],0 mm
same,zone of inhibition at 25 µg/disc,Priestia megaterium [47],1 mm
same,zone of inhibition at 25 µg/disc,Escherichia coli [48],0 mm
same,zone of inhibition at 25 µg/disc,[Chlorella] fusca [49],2 mm
same,Activity,Amphibalanus amphitrite,Toxic
CC(=O)OC(C=C(C)C)C/C(C)=C1/CC=C(C)CC1 (stereo unspecified),zone of inhibition at 34 µg/disc,Microbotryum violaceum [50],0 mm
same,zone of inhibition at 34 µg/disc,Mycotypha microspora [51],0 mm
same,zone of inhibition at 34 µg/disc,[52],0 mm
same,zone of inhibition at 34 µg/disc,Fusarium oxysporum [53],0 mm
same,zone of inhibition at 34 µg/disc,Priestia megaterium [54],0 mm
same,zone of inhibition at 34 µg/disc,Escherichia coli [55],0 mm
same,zone of inhibition at 34 µg/disc,[Chlorella] fusca [56],3 mm

# — ChEMBL document CHEMBL1158853, “Laurencia rigida: chemical investigations of its antifouling dichloromethane extract” (J Nat Prod, 1997)
